Reference: PMC3591457, “Biodistribution and Elimination Study of Fluorine-18 Labeled N^ε-Carboxymethyl-Lysine following Intragastric and Intravenous Administration” (PLoS ONE, 2013)

Columns and labels:
[1] = ^18F-CML in vitro stability (RCP by paper chromatography at room temperature); type: physicochemical; details: 6 h at room temperature (26±2°C)
Experimental: The in vitro stability of ^18F-CML was studied by storing the freshly prepared complex at room temperature (26±2°C) for a period of 6 h. The RCP was evaluated every 0.5 h using paper chromatography to determine its in vitro stability.

[2] = Biodistribution after intragastric administration; type: in vivo, ICR mice; details: for Uptake in bladder, percentage of injected dose per whole tissue / Uptake in brain, percentage of injected dose per whole tissue / Uptake in heart, percentage of injected dose per whole tissue / Uptake in intestines, percentage of injected dose per whole tissue / Uptake in kidneys, percentage of injected dose per whole tissue / Uptake in liver, percentage of injected dose per whole tissue / Uptake in lungs, percentage of injected dose per whole tissue / Uptake in muscles, percentage of injected dose per whole tissue / Uptake in pancreas, percentage of injected dose per whole tissue / Uptake in stomach, percentage of injected dose per whole tissue: intragastric administration, n=3, mean ± SD
Experimental: The biodistribution of ^18F-CML was studied in eighteen young male ICR mice with a weight range of 18–20 g. Nine mice were used for intravenous administration and the other nine mice were used for intragastric administration.
For intravenous administration, ^18F-CML was injected into a lateral tail vein of the animals under light ether anesthesia. The injection volume (2–3 MBq; radiochemical purity 96%) was 0.1 mL. For intragastric administration, 1.5 MBq of ^18F-labeled CML was given via gastrointestinal tract tract.
The mice were sacrificed at 5, 60, and 120 min after administration of ^18F-CML (three mice at each time point). The animals were sacrificed by heart puncture under ether anaesthesia. The tissues and organs of interest were isolated and counted in a well-type γ counter. Additionally, 200 µL of blood was taken from the carotid artery. The distributions of ^18F-CML in different tissues and organs were calculated and expressed as the percent uptake of the injection dose per whole tissue (% ID).

Compound: O=C(O)CNCCCCC(NC(=O)c1ccc([18F])cc1)C(=O)O (stereo not shown) [^18F-CML]
- Radiochemical purity (RCP) retained on storage (in vitro stability) [1]: 98.2±0.3%
- Uptake in bladder, percentage of injected dose per whole tissue ([2]; 5 min): 5.20±1.68 %ID
- Uptake in brain, percentage of injected dose per whole tissue ([2]; 5 min): 1.04±0.02 %ID
- Uptake in heart, percentage of injected dose per whole tissue ([2]; 5 min): 1.05±0.25 %ID
- Uptake in intestines, percentage of injected dose per whole tissue ([2]; 5 min): 9.91±1.36 %ID
- Uptake in kidneys, percentage of injected dose per whole tissue ([2]; 5 min): 2.20±0.95 %ID
- Uptake in liver, percentage of injected dose per whole tissue ([2]; 5 min): 1.17±0.45 %ID
- Uptake in lungs, percentage of injected dose per whole tissue ([2]; 5 min): 0.35±0.19 %ID
- Uptake in muscles, percentage of injected dose per whole tissue ([2]; 5 min): 1.76±0.53 %ID
- Uptake in pancreas, percentage of injected dose per whole tissue ([2]; 5 min): 0.2±0.01 %ID
- Uptake in stomach, percentage of injected dose per whole tissue ([2]; 5 min): 76.85±7.01 %ID
- Uptake in bladder, percentage of injected dose per whole tissue ([2]; 60 min): 12.21±1.62 %ID
- Uptake in brain, percentage of injected dose per whole tissue ([2]; 60 min): 0.31±0.03 %ID
- Uptake in heart, percentage of injected dose per whole tissue ([2]; 60 min): 0.75±0.52 %ID
- Uptake in intestines, percentage of injected dose per whole tissue ([2]; 60 min): 52.29±8.71 %ID
- Uptake in kidneys, percentage of injected dose per whole tissue ([2]; 60 min): 3.31±1.91 %ID
- Uptake in liver, percentage of injected dose per whole tissue ([2]; 60 min): 1.0±0.12 %ID
- Uptake in lungs, percentage of injected dose per whole tissue ([2]; 60 min): 0.51±0.11 %ID
- Uptake in muscles, percentage of injected dose per whole tissue ([2]; 60 min): 2.16±1.82 %ID
- Uptake in pancreas, percentage of injected dose per whole tissue ([2]; 60 min): 0.32±0.02 %ID
- Uptake in stomach, percentage of injected dose per whole tissue ([2]; 60 min): 29.73±3.91 %ID
- Uptake in bladder, percentage of injected dose per whole tissue ([2]; 120 min): 29.59±3.7 %ID
- Uptake in brain, percentage of injected dose per whole tissue ([2]; 120 min): 0.02±0.01 %ID
- Uptake in heart, percentage of injected dose per whole tissue ([2]; 120 min): 0.29±0.59 %ID
- Uptake in intestines, percentage of injected dose per whole tissue ([2]; 120 min): 48.32±5.2 %ID
- Uptake in kidneys, percentage of injected dose per whole tissue ([2]; 120 min): 2.1±0.29 %ID
- Uptake in liver, percentage of injected dose per whole tissue ([2]; 120 min): 0.29±0.05 %ID
- Uptake in lungs, percentage of injected dose per whole tissue ([2]; 120 min): 0.23±0.05 %ID
- Uptake in muscles, percentage of injected dose per whole tissue ([2]; 120 min): 1.11±1.78 %ID
- Uptake in pancreas, percentage of injected dose per whole tissue ([2]; 120 min): 0.05±0.00 %ID
- Uptake in stomach, percentage of injected dose per whole tissue ([2]; 120 min): 17.87±2.1 %ID
- Accumulation of radioactivity in the gastrointestinal tract ([2]; intragastric, 60 min): approximately 82 % ID
- Fraction excreted in the urine ([2]; intragastric, 60 min): 12 % ID
- Blood uptake ([2]; intragastric, 120 min, percentage of wet tissue): 0.95±0.09 % ID
